{"source": "paper PMC11020896", "about": "“Development of a ^99mTc-labeled tetrazine for pretargeted SPECT imaging using an alendronic acid-based bone targeting model” (PLOS ONE, 2024)", "key": {"[1]": {"tested_on": "Healthy Balb/c female mice", "experiment": "SPECT/CT quantitative image analysis of 99mTc-labeled Tzs (pretargeted with Aln-TCO, saline control, or directly targeted)", "assay_type": "in vivo", "details": "for blood pool activity: directly targeted Aln-TCO", "procedure": "(§1) The study was conducted in compliance with the guidelines set by the Canadian Council on Animal Care (CCAC) and approved by the Animal Care Committee (ACC) at the University of British Columbia (A20-0132). Healthy Balb/c female mice (~25 g) were anesthetized using isoflurane delivered via a precision vaporizer (5% in oxygen for induction, between 1.5 and 2.5% in oxygen for maintenance) and received 100 μL of a 2 mg/kg solution of Aln-TCO in saline (pretargeted groups), or 100 μL saline (control groups) via intravenous injection. After 1 h, mice were anesthetized again and received another i.v. injection containing 100 μL of ^99mTc labeled Tzs in saline, with an average activity of 17.58 MBq, as well as a subcutaneous injection of Lactated Ringer’s solution (0.5 mL) to ensure hydration before each imaging scan. After the injection, a VECTor/CT multimodal preclinical scanner (MILabs, The Netherlands) equipped with a HEUHR-1 mm mouse pinhole collimator was used to obtain static whole-body images. The first scans were obtained with a single frame lasting 25 minutes, followed by scans at 2- and 6-hours post-injection, each with a single frame lasting 40 and 50 minutes, respectively.\nThroughout the scanning process, mice were maintained under isoflurane anesthesia and kept warm with a heating pad to ensure constant body temperature. Following each SPECT acquisition, a whole-body CT scan was performed to obtain anatomical information and the two images were registered. The ^99mTc photopeak window was centered at 140 keV with a 25% energy window width. SPECT image reconstructions were carried out using a pixel-ordered subset expectation maximization (POSEM) algorithm with 16 subsets, 6 iterations, and an isotropic 0.4 mm voxel grid to enable quantitative analysis. The images were decay corrected, and after CT registration, attenuation correction was applied. For visual representation, the reconstructed volumes of SPECT scans were post-filtered with a 3D Gaussian filter. CT scans were conducted using a tube setting of 55 kV and 615 μA, and 2 frames of 180 projections over 360 degrees were captured in step and shoot rotation mode. The acquired projection data was reconstructed using SkyScan NRecon software to generate a 3D CT image on 0.169 mm^3 voxel size. Volumes of interest (VOIs), in the left ventricle of the heart (blood pool), liver (n = 3), bladder, kidney (n = 2), shoulder and knee joint (n = 2, respectively) were manually defined using AMIDE [49] (v.1.0.5) to determine the time activity pattern per target organ. The average organ activity per volume was obtained from the SPECT images and the %ID/g of tissue were extracted from each organ. To relate the scanner units (counts/pixel) to radioactivity concentration (MBq/mL), a calibration factor was determined scanning a source with a known concentration of ^99mTc. Following the last time imaging time point (6 h, except mice injected with ^99mTc-3, which were sacrificed 24 h p.i.), mice were sacrificed via CO2 asphyxiation under isoflurane anesthesia. Blood was recovered via cardiac puncture and organs of interest were dissected out, cleaned and weighed. The bone uptake of the shoulder was measured by measuring the activity of scapula and humerus, cut below the elbow joint, while knee uptake was measured in the femur, cut below the knee joint. […] The activity was quantified on a calibrated Cobra II Autogamma counter (Packard Instruments, USA) and decay corrected to the time of injection. […]"}, "[2]": {"tested_on": "Healthy Balb/c female mice", "experiment": "Post-mortem (ex vivo) biodistribution after last imaging time point, gamma counter", "assay_type": "in vivo", "procedure": "as §1\nThroughout the scanning process, mice were maintained under isoflurane anesthesia and kept warm with a heating pad to ensure constant body temperature. Following each SPECT acquisition, a whole-body CT scan was performed to obtain anatomical information and the two images were registered. The ^99mTc photopeak window was centered at 140 keV with a 25% energy window width. SPECT image reconstructions were carried out using a pixel-ordered subset expectation maximization (POSEM) algorithm with 16 subsets, 6 iterations, and an isotropic 0.4 mm voxel grid to enable quantitative analysis. The images were decay corrected, and after CT registration, attenuation correction was applied. For visual representation, the reconstructed volumes of SPECT scans were post-filtered with a 3D Gaussian filter. CT scans were conducted using a tube setting of 55 kV and 615 μA, and 2 frames of 180 projections over 360 degrees were captured in step and shoot rotation mode. The acquired projection data was reconstructed using SkyScan NRecon software to generate a 3D CT image on 0.169 mm^3 voxel size. Volumes of interest (VOIs), in the left ventricle of the heart (blood pool), liver (n = 3), bladder, kidney (n = 2), shoulder and knee joint (n = 2, respectively) were manually defined using AMIDE [49] (v.1.0.5) to determine the time activity pattern per target organ. The average organ activity per volume was obtained from the SPECT images and the %ID/g of tissue were extracted from each organ. To relate the scanner units (counts/pixel) to radioactivity concentration (MBq/mL), a calibration factor was determined scanning a source with a known concentration of ^99mTc. Following the last time imaging time point (6 h, except mice injected with ^99mTc-3, which were sacrificed 24 h p.i.), mice were sacrificed via CO2 asphyxiation under isoflurane anesthesia. Blood was recovered via cardiac puncture and organs of interest were dissected out, cleaned and weighed. The bone uptake of the shoulder was measured by measuring the activity of scapula and humerus, cut below the elbow joint, while knee uptake was measured in the femur, cut below the knee joint. Bone samples were thoroughly cleaned from muscle and connective tissue. The activity was quantified on a calibrated Cobra II Autogamma counter (Packard Instruments, USA) and decay corrected to the time of injection."}, "[3]": {"details": "directly targeted Aln-TCO, biodistribution 6 h p.i., ratio of %ID/g"}, "[4]": {"details": "directly targeted Aln-TCO, sacrificed 6 h p.i."}}}
{"smiles": "O=C(O)CN(CCNC(=O)CCCC(=O)Nc1ccc(-c2nnc(-c3ccccn3)nn2)nc1)Cc1cccc(C(=O)O)n1", "note": "(99mTc complex, metal not drawn) [Tz 1, 6-(((carboxymethyl)(2-(5-oxo-5-((6-(6-(pyridin-2-yl)-1,2,4,5-tetrazin-3-yl)pyridin-3-yl)amino)pentanamido)ethyl)amino)methyl)picolinic acid]", "values": [{"measurement": "difference in blood pool activity, 1* vs 1a", "setting": "[1]; 6 h p.i.", "value": 15, "unit": "fold"}, {"measurement": "blood pool activity", "setting": "[1]; image analysis, 0 h", "value": "27.35 ± 3.79", "unit": "%ID/g"}, {"measurement": "liver activity over time", "setting": "[1]; image analysis, 0-6 h, directly targeted", "value": "increase over time"}, {"measurement": "blood pool activity", "setting": "[1]; image analysis, 6 h p.i.", "value": "3.66 ± 0.65", "unit": "%ID/g"}, {"measurement": "Knee/Blood ratio", "setting": "[2]; [3]", "value": "2.39 ± 0.09"}, {"measurement": "Knee/Liver ratio", "setting": "[2]; [3]", "value": "0.17 ± 0.09"}, {"measurement": "Shoulder/Blood ratio", "setting": "[2]; [3]", "value": "1.29 ± 0.30"}, {"measurement": "Shoulder/Liver ratio", "setting": "[2]; [3]", "value": "0.09 ± 0.30"}, {"measurement": "Bladder activity, post-mortem biodistribution", "setting": "[2]; [4]", "value": "1.22 ± 0.04", "unit": "% ID/g"}, {"measurement": "Blood activity, post-mortem biodistribution", "setting": "[2]; [4]", "value": "3.82 ± 0.32", "unit": "% ID/g"}, {"measurement": "Brain activity, post-mortem biodistribution", "setting": "[2]; [4]", "value": "0.10 ± 0.01", "unit": "% ID/g"}, {"measurement": "Heart activity, post-mortem biodistribution", "setting": "[2]; [4]", "value": "2.87 ± 0.27", "unit": "% ID/g"}, {"measurement": "Intestine activity, post-mortem biodistribution", "setting": "[2]; [4]", "value": "3.85 ± 0.49", "unit": "% ID/g"}, {"measurement": "Kidney activity, post-mortem biodistribution", "setting": "[2]; [4]", "value": "9.04 ± 0.60", "unit": "% ID/g"}, {"measurement": "Knee activity, post-mortem biodistribution", "setting": "[2]; [4]", "value": "9.13 ± 0.73", "unit": "% ID/g"}, {"measurement": "Liver activity, post-mortem biodistribution", "setting": "[2]; [4]", "value": "54.39 ± 4.03", "unit": "% ID/g"}, {"measurement": "Lung activity, post-mortem biodistribution", "setting": "[2]; [4]", "value": "6.70 ± 0.85", "unit": "% ID/g"}, {"measurement": "Muscle activity, post-mortem biodistribution", "setting": "[2]; [4]", "value": "0.31 ± 0.01", "unit": "% ID/g"}, {"measurement": "Pancreas activity, post-mortem biodistribution", "setting": "[2]; [4]", "value": "1.20 ± 0.20", "unit": "% ID/g"}, {"measurement": "Shoulder activity, post-mortem biodistribution", "setting": "[2]; [4]", "value": "4.91 ± 1.43", "unit": "% ID/g"}, {"measurement": "Spleen activity, post-mortem biodistribution", "setting": "[2]; [4]", "value": "38.03 ± 4.69", "unit": "% ID/g"}, {"measurement": "Stomach activity, post-mortem biodistribution", "setting": "[2]; [4]", "value": "1.70 ± 0.10", "unit": "% ID/g"}, {"measurement": "uptake in liver and spleen", "setting": "[2]; directly targeted, 6 h p.i.", "value": "strong uptake"}]}
{"smiles": "O=C(O)CN(CCNC(=O)CCOCCOCCOCCOCCOCCOCCOCCOCCNC(=O)CCCC(=O)Nc1ccc(-c2nncnn2)cc1)Cc1cccc(C(=O)O)n1", "note": "[Tz 4, 6-(38-((4-(1,2,4,5-tetrazin-3-yl)phenyl)amino)-2-(carboxymethyl)-6,34,38-trioxo-9,12,15,18,21,24,27,30-octaoxa-2,5,33-triazaoctatriacontyl)picolinic acid]", "values": [{"measurement": "bone accumulation, pretargeted vs. non-targeted group", "setting": "[1]; image analysis of shoulder and knee at 0, 2 and 6 h p.i.", "value": "did not show statistically significant bone uptake at any time point compared to the saline control"}]}
